Results on one compound are retold here after patent US20230255197A1, “INFLUENCE OF THE MORPHOLOGICAL AND THE STRUCTURAL CHANGES ON THE ANTIMICROBIAL ACTIVITIES OF TITANATE NANOWIRES” (BOARD OF TRUSTEES OF THE UNIVERSITY OF ARKANSAS, priority 2022, published 2023).

The test system of this assay is E. coli cells. Kind of assay: E. coli growth in LB medium in 96-well plates, cell growth monitored by absorbance at 600 nm. It counts as cell-based. Conditions: 37° C., O.D. at 600 nm = 0.25, read from FIG. 2, chloramphenicol:nanomaterial w/w 1:10. The protocol: In step (3), to test the antimicrobial efficiency, solution of E. coli cells were inoculated into fresh LB medium and incubated at 37° C. overnight. In one embodiment, 5µL solution of E. coli cells was inoculated into 2 ml of fresh LB medium. Sample of the overnight culture was transferred into each well of a 96-well plate and further grown with 200 µL fresh LB medium. To test antimicrobial activities, different concentrations of antimicrobial agents alone, TiO2 alone, and TiO2 nanowires - chloramphenicol complex were added to the LB medium with E. coli cells. It should be noted that same procedure was followed to prepare different concentrations (1, 2, 3, 4, and 5 µg/ml) of either chloramphenicol alone, nanomaterials alone or a mixture of both. Three identical replicates were prepared on the plate for each assigned material. Then, the 96-well plates were sealed with an oxygen-permeable membrane and the cell growth was monitored by reading the absorbance at 600 nm with microplate readers at 37° C. continuously. Equal amounts of chloramphenicol were mixed with each sample of the assigned version of nanomaterials (Na-TiO2 and K-TiO2) with a w/w ratio of 1:10. […]

For `O=C(N[C@H](CO)[C@H](O)c1ccc([N+](=O)[O-])cc1)C(Cl)Cl` [chloramphenicol], the “concentration of chloramphenicol necessary to reach the same O.D. reading 0.25 (same degree of antimicrobial activity)” value worked out at 5 µg/mL.
